Assay results taken from patent US11945822B2, “Pyrazolo-triazine and/or pyrazolo-pxrimidine derivatives as selective inhibitor of cyclin dependent kinase” (QURIENT CO., LTD., priority 2018, dated 2024).

The compounds below were run against T1, CDK7/Cyclin H/MNAT1 (Homo sapiens, UniProt P50613) (assay: Enzymatic assay for CDK7 (FRET based LANCE Ultra kinase assay)). Details: CDK7 over CDK1.
T1 construct: purchased Invitrogen PR6749B
Type: biochemical
Summary of the method: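 LANCE Ultra TR-FRET kinase assay using a ULight-labeled peptide substrate and a Eu-labeled anti-phospho antibody, with ATP at its Km. Purified CDK/cyclin complex was added to compound after brief centrifugation.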

T1 sequence (P50613 whole entry): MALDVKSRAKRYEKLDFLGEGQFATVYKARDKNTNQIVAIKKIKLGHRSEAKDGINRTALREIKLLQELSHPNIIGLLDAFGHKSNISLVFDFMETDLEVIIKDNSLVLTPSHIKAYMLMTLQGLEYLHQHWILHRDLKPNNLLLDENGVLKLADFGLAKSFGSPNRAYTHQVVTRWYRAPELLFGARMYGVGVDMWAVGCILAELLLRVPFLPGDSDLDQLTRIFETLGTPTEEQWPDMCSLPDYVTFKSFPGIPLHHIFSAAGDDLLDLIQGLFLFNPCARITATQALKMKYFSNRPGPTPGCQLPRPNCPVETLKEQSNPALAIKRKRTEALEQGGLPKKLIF
T1 sequence (P51946 whole entry partner): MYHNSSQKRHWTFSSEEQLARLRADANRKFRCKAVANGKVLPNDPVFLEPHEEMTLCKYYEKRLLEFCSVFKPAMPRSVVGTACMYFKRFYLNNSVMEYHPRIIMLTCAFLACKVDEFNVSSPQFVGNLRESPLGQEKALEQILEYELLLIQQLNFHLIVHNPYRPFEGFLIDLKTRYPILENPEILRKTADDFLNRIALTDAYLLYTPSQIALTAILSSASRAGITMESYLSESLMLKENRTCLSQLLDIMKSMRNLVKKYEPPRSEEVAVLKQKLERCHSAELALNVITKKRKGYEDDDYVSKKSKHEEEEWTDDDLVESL
T1 sequence (P51948 whole entry partner): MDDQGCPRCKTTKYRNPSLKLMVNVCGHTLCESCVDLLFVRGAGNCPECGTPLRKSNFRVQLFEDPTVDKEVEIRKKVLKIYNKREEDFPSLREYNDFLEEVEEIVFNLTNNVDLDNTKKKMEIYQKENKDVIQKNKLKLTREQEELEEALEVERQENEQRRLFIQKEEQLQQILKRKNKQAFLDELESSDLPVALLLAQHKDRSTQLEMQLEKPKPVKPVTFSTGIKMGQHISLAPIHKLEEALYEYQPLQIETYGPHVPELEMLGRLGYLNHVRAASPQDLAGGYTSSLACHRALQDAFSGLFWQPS

Row | Structure (SMILES) | CDK1/CDK7: Selectivity of CDK7 inhibition over CDK1 inhibition
1 | CC(C)c1cnn2c(NCc3ccccc3-c3cccs3)nc(N3CCC(N)CC3)nc12 [Compound 44] | B (B=less than 200 fold, but greater than 20 fold)
2 | CC(C)c1cnn2c(NCc3ccccc3N3CCCC3)nc(N3CCC(N)CC3)nc12 [Compound 54] | B (B=less than 200 fold, but greater than 20 fold)
3 | CC(C)c1cnn2c(NCc3ccccc3Oc3ccccc3)nc(N3CCC(N)CC3)nc12 [Compound 56] | B (B=less than 200 fold, but greater than 20 fold)
4 | CC(C)c1cnn2c(NCc3ccccc3Nc3ccccc3)nc(N3CCC(N)CC3)nc12 [Compound 61] | B (B=less than 200 fold, but greater than 20 fold)
5 | CC(C)c1cnn2c(NCc3ccccc3N(C)c3ccccc3)nc(N3CCC(N)CC3)nc12 [Compound 63] | B (B=less than 200 fold, but greater than 20 fold)

Same assay, conditions: CDK7 over CDK2

Row | Structure (SMILES) | CDK2/CDK7: Selectivity of CDK7 inhibition over CDK2 inhibition
6 | CC(C)c1cnn2c(NCc3ccccc3-c3cccs3)nc(N3CCC(N)CC3)nc12 [Compound 44] | B (B=less than 200 fold, but greater than 20 fold)
7 | CC(C)c1cnn2c(NCc3ccccc3N3CCCC3)nc(N3CCC(N)CC3)nc12 [Compound 54] | B (B=less than 200 fold, but greater than 20 fold)
8 | CC(C)c1cnn2c(NCc3ccccc3Oc3ccccc3)nc(N3CCC(N)CC3)nc12 [Compound 56] | B (B=less than 200 fold, but greater than 20 fold)
9 | CC(C)c1cnn2c(NCc3ccccc3Nc3ccccc3)nc(N3CCC(N)CC3)nc12 [Compound 61] | B (B=less than 200 fold, but greater than 20 fold)
10 | CC(C)c1cnn2c(NCc3ccccc3N(C)c3ccccc3)nc(N3CCC(N)CC3)nc12 [Compound 63] | B (B=less than 200 fold, but greater than 20 fold)

Same assay, conditions: CDK7 over CDK5

Row | CDK5/CDK7: Selectivity of CDK7 inhibition over CDK5 inhibition | Structure (SMILES)
11 | C (C=less than 20 fold) | CC(C)c1cnn2c(NCc3ccccc3N3CCCC3)nc(N3CCC(N)CC3)nc12 [Compound 54]
12 | C (C=less than 20 fold) | CC(C)c1cnn2c(NCc3ccccc3Oc3ccccc3)nc(N3CCC(N)CC3)nc12 [Compound 56]
13 | C (C=less than 20 fold) | CC(C)c1cnn2c(NCc3ccccc3Nc3ccccc3)nc(N3CCC(N)CC3)nc12 [Compound 61]

Row | Structure (SMILES) | CDK5/CDK7: Selectivity of CDK7 inhibition over CDK5 inhibition
14 | CC(C)c1cnn2c(NCc3ccccc3-c3cccs3)nc(N3CCC(N)CC3)nc12 [Compound 44] | B (B=less than 200 fold, but greater than 20 fold)
15 | CC(C)c1cnn2c(NCc3ccccc3N(C)c3ccccc3)nc(N3CCC(N)CC3)nc12 [Compound 63] | B (B=less than 200 fold, but greater than 20 fold)

Same assay, conditions: read-out: CDK7 enzymatic activity (IC50 range)

Row | Structure (SMILES) | IC50
16 | CC(C)c1cnn2c(NCc3ccccc3N3CCCC3)nc(N3CCC(N)CC3)nc12 [Compound 54] | < 100 nM
17 | CC(C)c1cnn2c(NCc3ccccc3Oc3ccccc3)nc(N3CCC(N)CC3)nc12 [Compound 56] | < 100 nM

The remaining lines, values ahead:

Row | IC50 | Structure (SMILES)
18 | < 100 nM | CC(C)c1cnn2c(NCc3ccccc3-c3cccs3)nc(N3CCC(N)CC3)nc12 [Compound 44]
19 | < 100 nM | CC(C)c1cnn2c(NCc3ccccc3Nc3ccccc3)nc(N3CCC(N)CC3)nc12 [Compound 61]
20 | < 100 nM | CC(C)c1cnn2c(NCc3ccccc3N(C)c3ccccc3)nc(N3CCC(N)CC3)nc12 [Compound 63]

The compounds below were run against T2, CDK2/Cyclin A (Homo sapiens, UniProt P24941) (assay: Enzymatic assay for CDK2 (FRET based LANCE Ultra kinase assay)). Details: read-out: CDK2 enzymatic activity (IC50 range).
T2 construct: purchased Invitrogen PV6290
Type: biochemical
Summary of the method: (§1)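 TR-FRET (LANCE Ultra) kinase assay at ATP Km, ULight-MBP peptide substrate (68 nM), 8-dose 4-fold compound series in DMSO. Enzymes: […]; 60 min at 23° C., stopped with EDTA plus Eu-anti-phospho-MBP antibody, read 665/615 nm after 60 min.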

Row | Structure (SMILES) | IC50
21 | CC(C)c1cnn2c(NCc3ccccc3N3CCCC3)nc(N3CCC(N)CC3)nc12 [Compound 54] | 100 to 1000 nM
22 | CC(C)c1cnn2c(NCc3ccccc3Oc3ccccc3)nc(N3CCC(N)CC3)nc12 [Compound 56] | > 1000 nM

More lines, now with the values ahead:

Row | IC50 | Structure (SMILES)
23 | 100 to 1000 nM | CC(C)c1cnn2c(NCc3ccccc3-c3cccs3)nc(N3CCC(N)CC3)nc12 [Compound 44]
24 | 100 to 1000 nM | CC(C)c1cnn2c(NCc3ccccc3Nc3ccccc3)nc(N3CCC(N)CC3)nc12 [Compound 61]
25 | 100 to 1000 nM | CC(C)c1cnn2c(NCc3ccccc3N(C)c3ccccc3)nc(N3CCC(N)CC3)nc12 [Compound 63]

What follows are compounds tested against T3, CDK1/Cyclin B (Homo sapiens, UniProt P06493) (assay: Enzymatic assay for CDK1 (FRET based LANCE Ultra kinase assay)). Details: read-out: CDK1 enzymatic activity (IC50 range).
T3 construct: purchased Invitrogen PR4768C
T3 sequence (P06493 whole entry): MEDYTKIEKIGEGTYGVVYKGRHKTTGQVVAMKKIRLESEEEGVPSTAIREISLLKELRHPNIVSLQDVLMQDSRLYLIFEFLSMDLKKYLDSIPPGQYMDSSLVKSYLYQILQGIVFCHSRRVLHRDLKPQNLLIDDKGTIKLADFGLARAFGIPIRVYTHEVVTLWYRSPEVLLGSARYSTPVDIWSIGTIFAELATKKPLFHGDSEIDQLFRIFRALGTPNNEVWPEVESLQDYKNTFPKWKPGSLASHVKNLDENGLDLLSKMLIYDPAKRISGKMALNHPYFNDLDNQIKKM
T3 sequence (P14635 whole entry partner): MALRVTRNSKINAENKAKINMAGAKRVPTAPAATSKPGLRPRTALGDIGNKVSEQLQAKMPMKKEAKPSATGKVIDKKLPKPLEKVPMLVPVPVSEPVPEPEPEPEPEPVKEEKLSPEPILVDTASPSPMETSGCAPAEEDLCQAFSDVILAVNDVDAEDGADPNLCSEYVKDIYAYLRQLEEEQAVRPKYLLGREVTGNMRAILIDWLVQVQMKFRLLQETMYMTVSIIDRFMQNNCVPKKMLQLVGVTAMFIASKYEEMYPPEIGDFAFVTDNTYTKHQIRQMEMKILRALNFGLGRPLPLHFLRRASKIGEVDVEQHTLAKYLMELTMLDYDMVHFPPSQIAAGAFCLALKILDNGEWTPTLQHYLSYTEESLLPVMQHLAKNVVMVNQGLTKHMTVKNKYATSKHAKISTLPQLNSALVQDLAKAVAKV
Type: biochemical
Summary of the method: as §1

Row | Structure (SMILES) | IC50
26 | CC(C)c1cnn2c(NCc3ccccc3N3CCCC3)nc(N3CCC(N)CC3)nc12 [Compound 54] | > 1000 nM
27 | CC(C)c1cnn2c(NCc3ccccc3Oc3ccccc3)nc(N3CCC(N)CC3)nc12 [Compound 56] | > 1000 nM

Second part, the compound after the results:

Row | IC50 | Structure (SMILES)
28 | 100 to 1000 nM | CC(C)c1cnn2c(NCc3ccccc3-c3cccs3)nc(N3CCC(N)CC3)nc12 [Compound 44]
29 | > 1000 nM | CC(C)c1cnn2c(NCc3ccccc3Nc3ccccc3)nc(N3CCC(N)CC3)nc12 [Compound 61]
30 | 100 to 1000 nM | CC(C)c1cnn2c(NCc3ccccc3N(C)c3ccccc3)nc(N3CCC(N)CC3)nc12 [Compound 63]

What follows are compounds tested on RPMI-8226 (assay: Cellular RPMI-8226 viability assay (CellTiter-Glo, 72 hours)). Details: Homo sapiens.
Type: cell-based
Method: All cell lines were routinely tested for mycoplasma.
The effect of the CDK7 inhibitor to inhibit the growth of target cancer cells was evaluated through the 72 hours time period of viability assay. Briefly, the candidate cell line ware plated in 96 well plate at the following density of cells respectively. […] DMSO solvent without compound served as a control and final DMSO concentration less than 0.1%. After 72 hours of incubation at 37° C., 5% CO2 incubator, cells were analyzed for the viability using the CellTiter-Glo Luminescent Cell Viability Assay (Promega, Cat #G7570). All viability assays were performed in duplicate and Luminescence was read using an Envision (Perkin Elmer, USA). Data was analyzed using XLfit software.

Row | Structure (SMILES) | IC50
31 | CC(C)c1cnn2c(NCc3ccccc3N3CCCC3)nc(N3CCC(N)CC3)nc12 [Compound 54] | 1000 to 10000 nM
32 | CC(C)c1cnn2c(NCc3ccccc3Oc3ccccc3)nc(N3CCC(N)CC3)nc12 [Compound 56] | 1000 to 10000 nM

Results, then the compound that gave them:

Row | IC50 | Structure (SMILES)
33 | < 1000 nM | CC(C)c1cnn2c(NCc3ccccc3-c3cccs3)nc(N3CCC(N)CC3)nc12 [Compound 44]
34 | 1000 to 10000 nM | CC(C)c1cnn2c(NCc3ccccc3Nc3ccccc3)nc(N3CCC(N)CC3)nc12 [Compound 61]
35 | 1000 to 10000 nM | CC(C)c1cnn2c(NCc3ccccc3N(C)c3ccccc3)nc(N3CCC(N)CC3)nc12 [Compound 63]

What follows are compounds tested on MOLT-4 (assay: Cellular MOLT-4 viability assay (CellTiter-Glo, 72 hours)). Details: Homo sapiens, MOLT4 viability assay.
Type: cell-based
Summary of the method: (§2)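 72 h treatment, 37 °C, 5% CO2; DMSO ctrl, final <0.1%; CellTiter-Glo luminescence; n=2.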

Row | Structure (SMILES) | IC50
36 | CC(C)c1cnn2c(NCc3ccccc3N3CCCC3)nc(N3CCC(N)CC3)nc12 [Compound 54] | 1 to 10 µM
37 | CC(C)c1cnn2c(NCc3ccccc3Oc3ccccc3)nc(N3CCC(N)CC3)nc12 [Compound 56] | 1 to 10 µM

Now from value to compound:

Row | IC50 | Structure (SMILES)
38 | 1 to 10 µM | CC(C)c1cnn2c(NCc3ccccc3-c3cccs3)nc(N3CCC(N)CC3)nc12 [Compound 44]
39 | 1 to 10 µM | CC(C)c1cnn2c(NCc3ccccc3Nc3ccccc3)nc(N3CCC(N)CC3)nc12 [Compound 61]
40 | > 10 µM | CC(C)c1cnn2c(NCc3ccccc3N(C)c3ccccc3)nc(N3CCC(N)CC3)nc12 [Compound 63]

Each compound was assayed against T4, CDK5/p25 (Homo sapiens, UniProt Q00535) (assay: Enzymatic assay for CDK5 (FRET based LANCE Ultra kinase assay)). Details: read-out: CDK5 enzymatic activity (IC50 range).
T4 construct: purchased Invitrogen PR8543B
T4 sequence (Q00535 whole entry): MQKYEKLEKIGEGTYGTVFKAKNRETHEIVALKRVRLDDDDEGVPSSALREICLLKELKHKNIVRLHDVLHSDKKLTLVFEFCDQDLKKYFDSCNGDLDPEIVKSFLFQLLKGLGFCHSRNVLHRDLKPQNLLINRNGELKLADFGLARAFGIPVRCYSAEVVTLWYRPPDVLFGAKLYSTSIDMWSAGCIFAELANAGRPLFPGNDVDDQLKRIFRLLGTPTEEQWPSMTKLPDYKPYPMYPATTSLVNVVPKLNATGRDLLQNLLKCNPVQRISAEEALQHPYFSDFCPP
T4 sequence (Q15078 99-307 partner limits assumed): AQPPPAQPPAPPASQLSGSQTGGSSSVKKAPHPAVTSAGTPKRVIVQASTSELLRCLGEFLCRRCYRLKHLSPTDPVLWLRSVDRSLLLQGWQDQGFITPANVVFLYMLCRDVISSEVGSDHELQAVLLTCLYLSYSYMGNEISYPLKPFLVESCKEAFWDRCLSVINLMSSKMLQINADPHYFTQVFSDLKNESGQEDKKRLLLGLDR
Type: biochemical
Summary of the method: as §1

Row | Structure (SMILES) | IC50
41 | CC(C)c1cnn2c(NCc3ccccc3N3CCCC3)nc(N3CCC(N)CC3)nc12 [Compound 54] | 100 to 1000 nM
42 | CC(C)c1cnn2c(NCc3ccccc3Oc3ccccc3)nc(N3CCC(N)CC3)nc12 [Compound 56] | 100 to 1000 nM

More lines, now with the values ahead:

Row | IC50 | Structure (SMILES)
43 | < 100 nM | CC(C)c1cnn2c(NCc3ccccc3-c3cccs3)nc(N3CCC(N)CC3)nc12 [Compound 44]
44 | 100 to 1000 nM | CC(C)c1cnn2c(NCc3ccccc3Nc3ccccc3)nc(N3CCC(N)CC3)nc12 [Compound 61]
45 | 100 to 1000 nM | CC(C)c1cnn2c(NCc3ccccc3N(C)c3ccccc3)nc(N3CCC(N)CC3)nc12 [Compound 63]

These compounds were tested on H460 (assay: Cellular H460 viability assay (CellTiter-Glo, 72 hours)). Details: Homo sapiens, NCI-H460.
Type: cell-based
Summary of the method: as §2

Row | Structure (SMILES) | IC50
46 | CC(C)c1cnn2c(NCc3ccccc3N3CCCC3)nc(N3CCC(N)CC3)nc12 [Compound 54] | < 1000 nM
47 | CC(C)c1cnn2c(NCc3ccccc3Oc3ccccc3)nc(N3CCC(N)CC3)nc12 [Compound 56] | < 1000 nM

More lines, now with the values ahead:

Row | IC50 | Structure (SMILES)
48 | < 1000 nM | CC(C)c1cnn2c(NCc3ccccc3-c3cccs3)nc(N3CCC(N)CC3)nc12 [Compound 44]
49 | < 1000 nM | CC(C)c1cnn2c(NCc3ccccc3Nc3ccccc3)nc(N3CCC(N)CC3)nc12 [Compound 61]
50 | < 1000 nM | CC(C)c1cnn2c(NCc3ccccc3N(C)c3ccccc3)nc(N3CCC(N)CC3)nc12 [Compound 63]
